Results published in ChEMBL document CHEMBL3045660, “Regioselective synthesis of fraxinellone-based hydrazone derivatives as insecticidal agents” (2012).

Legend:
Assay type in all cases: functional
[1] = system: Mythimna separata; assay: Insecticidal activity against pre-third-instar larvae of Mythimna separata (Oriental armyworm) in compound treated fresh corn leaves assessed as corrected mortality at 1 mg/ml measured after 20 days by leaf-dipping method; details: 480 h
[2] = system: Mythimna separata; assay: Insecticidal activity against pre-third-instar larvae of Mythimna separata (Oriental armyworm) in compound treated fresh corn leaves assessed as corrected mortality at 1 mg/ml measured after 10 days by leaf-dipping method; details: 240 h
[3] = system: Mythimna separata; assay: Insecticidal activity against pre-third-instar larvae of Mythimna separata (Oriental armyworm) in compound treated fresh corn leaves assessed as corrected mortality at 1 mg/ml measured after 35 days by leaf-dipping method; details: 840 h

Row | SMILES | mortality at 1000 µg/mL [1] | mortality at 1000 µg/mL [2] | mortality at 1000 µg/mL [3]
1 | C[C@@]12CCCC(C=O)=C1C(=O)O[C@H]2c1ccoc1 [3-FORMYLFRAXINELLONE] | 25.9% | 17.2% | 34.6%
2 | CC1=C2C(=O)O[C@@H](c3ccoc3)[C@]2(C)CC/C1=N\NC(=O)c1cccs1 | 29.6% | 20.7% | 38.5%
3 | CC1=C2C(=O)O[C@@H](c3ccoc3)[C@]2(C)CC/C1=N\NC(=O)c1ccc([N+](=O)[O-])cc1 | 63% | 58.6% | 65.4%
4 | C[C@@]12CCCC(/C=N/NC(=O)c3ccncc3)=C1C(=O)O[C@H]2c1ccoc1 | 66.7% | 55.2% | 73.1%
5 | CC1=C2C(=O)O[C@@H](c3ccoc3)[C@]2(C)CC/C1=N\Nc1ccc([N+](=O)[O-])cc1 | 40.7% | 34.5% | 53.8%
6 | Cc1cccc(C(=O)N/N=C/C2=C3C(=O)O[C@@H](c4ccoc4)[C@]3(C)CCC2)c1 | 44.4% | 41.4% | 53.8%
7 | C[C@@]12CCCC(/C=N/Nc3ccc([N+](=O)[O-])cc3)=C1C(=O)O[C@H]2c1ccoc1 | 14.8% | 20.7% | 38.5%
8 | C[C@@]12CCCC(/C=N/NC(=O)c3ccc([N+](=O)[O-])cc3[N+](=O)[O-])=C1C(=O)O[C@H]2c1ccoc1 | 40.7% | 31% | 53.8%
9 | C[C@@]12CCCC(/C=N/NC(=O)c3cccc(Cl)c3)=C1C(=O)O[C@H]2c1ccoc1 | 40.7% | 44.8% | 53.8%
10 | CC1=C2C(=O)O[C@@H](c3ccoc3)[C@]2(C)CCC1=O [FRAXINELLONONE] | 48.1% | 48.3% | 57.7%
11 | C[C@@]12CCCC(/C=N/NC(=O)c3cccs3)=C1C(=O)O[C@H]2c1ccoc1 | 29.6% | 24.1% | 34.6%
12 | C[C@@]12CCCC(/C=N/NC(=O)c3ccc([N+](=O)[O-])cc3)=C1C(=O)O[C@H]2c1ccoc1 | 48.1% | 37.9% | 61.5%
13 | CC1=C2C(=O)O[C@@H](c3ccoc3)[C@]2(C)CC/C1=N\NC(=O)c1cccc(Cl)c1 | 59.3% | 58.6% | 69.2%
14 | C[C@@]12CCCC(/C=N/NC(=O)c3ccccc3)=C1C(=O)O[C@H]2c1ccoc1 | 55.6% | 58.6% | 65.4%
15 | C[C@@]12CCCC(/C=N/Nc3ccccc3)=C1C(=O)O[C@H]2c1ccoc1 | 44.4% | 27.6% | 53.8%
16 | CC1=C2C(=O)O[C@@H](c3ccoc3)[C@]2(C)CC/C1=N\Nc1ccccc1 | 22.2% | 10.3% | 46.2%
17 | COc1ccc(C(=O)N/N=C/C2=C3C(=O)O[C@@H](c4ccoc4)[C@]3(C)CCC2)cc1 | 44.4% | 37.9% | 50%
18 | C[C@@]12CCCC(/C=N/Nc3ccccc3[N+](=O)[O-])=C1C(=O)O[C@H]2c1ccoc1 | 37% | 13.8% | 50%
19 | CC1=C2C(=O)O[C@@H](c3ccoc3)[C@]2(C)CC/C1=N\NC(=O)c1ccncc1 | 33.3% | 24.1% | 50%
20 | C[C@@]12CCCC(/C=N/Nc3c(F)c(F)cc(F)c3F)=C1C(=O)O[C@H]2c1ccoc1 | 40.7% | 37.9% | 61.5%
21 | CC1=C2C(=O)O[C@@H](c3ccoc3)[C@]2(C)CC/C1=N\Nc1c(F)c(F)cc(F)c1F | 40.7% | 27.6% | 50%
22 | CC1=C2C(=O)O[C@@H](c3ccoc3)[C@]2(C)CCC1 [FRAXINELLONE] | 40.7% | 41.4% | 53.8%
23 | CC1=C2C(=O)O[C@@H](c3ccoc3)[C@]2(C)CC/C1=N\NC(=O)CC#N | 33.3% | 34.5% | 61.5%
24 | CC1=C2C(=O)O[C@@H](c3ccoc3)[C@]2(C)CC/C1=N\Nc1ccccc1[N+](=O)[O-] | 33.3% | 24.1% | 46.2%
25 | C[C@@]12CCCC(/C=N/NC(=O)CC#N)=C1C(=O)O[C@H]2c1ccoc1 | 66.7% | 55.2% | 69.2%
26 | CC1=C2C(=O)O[C@@H](c3ccoc3)[C@]2(C)CC/C1=N\NC(=O)c1ccccc1 | 63% | 58.6% | 76.9%
27 | CC(=O)O[C@@H]1C[C@H](O)[C@@]23CO[C@@H](O)[C@]1(C)[C@@H]2C[C@@H](O)[C@]1(C)[C@@H]3C(=O)[C@H](OC(C)=O)[C@@]2(C)[C@H](c3ccoc3)C[C@H]3O[C@]321 [TOOSENDANIN] | 33.3% | 24.1% | 53.8%
